# Tests used:
# [1] = clinical study of skin brightening efficacy and skin redness (chromameter readings); assay type: in vivo, human; settings: emulsion 0.3% by weight
# Procedure: The skin brightening efficacy of p-HCA in ethoxydyglycol versus kojic acid also was tested in a clinical study. In this study, an emulsion containing 0.3%, by weight, p-HCA or kojic acid was used on twenty, mostly female, subjects between the ages of 30 to 50 years. The test composition was applied to the abdomen twice daily (a.m. and p.m.). The test was conducted for eight weeks, and chromameter readings were taken at baseline, and after 2, 4, 6, and 8 weeks.
# [2] = test system: skin enzymes; assay: metabolism of p-HCA in homogenized human skin; assay type: in vitro ADME; settings: human skin homogenate in PBS-ethanol, 37° C., eight hours of incubation
# Procedure: First, to confirm in vivo activity of p-HCA, the metabolism of p-HCA in the skin was determined. In this test, human skin was homogenized in a PBS (phosphate-buffered saline)-ethanol solution, followed by dissolution of p-HCA. The solution was incubated at 37° C. for 8 hours. Samples were taken after 0, 4, and 8 hours, and were centrifuged. The supernatant was filtered and analyzed by HPLC. […] The amount of p-HCA that is metabolized was considered insignificant with respect to an efficacious treatment of hyperpigmentation.
# [3] = solubility of p-HCA in solvents / hydroxy-containing compounds (HPLC); assay type: physicochemical
# Procedure: Various solvents were tested for an ability to dissolve p-HCA and provide a suitable composition for topical application to efficaciously treat hyperpigmentation. p-HCA was added to various solvents, then sonicated for two hours at 35° C. until no further HCA was dissolved. The samples were cooled to room temperature (25° C.) and allowed to stabilize for 15 hours. The undissolved p-HCA was allowed to settle, the supernatant liquid was filtered, and diluted with the HPLC mobile phase for assay. All samples were analyzed by HPLC on a Hypersil ODS C18 column using water, methanol, glacial acetic acid (55:45:1) as the mobile phase. The flow rate was 1 ml/min and the wavelength for detection was 270 nm. […] p-Hydroxycinnamic acid was added to the hydroxy-containing compound and sonicated until no further p-HCA dissolved after two hours of sonication at 35° C. The test sample was cooled to room temperature, then stabilized for 15 hours. After the p-HCA was allowed to settle, the supernatant was filtered through a 0.2 micron syringe filter. Approximately 0.08 g of this filtered material was weighed into a 25 ml volumetric flask and diluted to volume with HPLC mobile phase. Two standards were analyzed by HPLC and compared to the two samples. The HPLC assay was identical to the HPLC assay discussed above.
# [4] = skin penetration, Franz diffusion cells; assay type: in vitro ADME, human
# Procedure: In another experiment, a 10% solution of p-HCA in ethoxydiglycol first was prepared. This solution was added to a skin care emulsion in a sufficient amount to provide either 0.3% or 0.1%, by weight, of p-HCA in the final composition. As a comparative example, 0.3%, by weight, of solid p-HCA was added to the same skin care emulsion. The skin care emulsion to which solid p-HCA or the p-HCA solution was added had the following formula (w/w %): • 85.35 water • 0.2 methylparaben • 0.35 xanthan gum • 5.0 butylene glycol • 4.0 sesame oil • 2.5 glyceryl stearate
# The skin care emulsions containing p-HCA were applied to cadaver skin. Skin penetration of p-HCA was studied using Franz diffusion cells, n=5 (Permegear, Bethlehem, Pa.). The receptor contained an isotonic phosphate buffer with 30% ethanol, and was stirred continuously at 600 rpm. Samples of dermatomed human cadaver skin (NDRA, Philadelphia) were placed on the cells and prehydrated for 1 hour prior to the experiment. One milliliter of each formulation was added to the donor compartment of each cell, which was covered tightly with PARAFILM®. Samples (300 μl) were withdrawn from the receptor compartment every hour over 8 hours, and replaced with 300 μl of fresh receptor solution. After 8 hours, the skin was removed and cut into small pieces. The skin pieces were homogenized using a Kinematica POLYTRON® homogenizer and centrifuged. The supernatant was filtered through 0.22μ filters, and the p-HCA content was quantified.
# All samples were analyzed by HPLC on a Hypersil ODS C18 column using water, methanol, glacial acetic acid (55:45:1) as the mobile phase at a flow rate of 1 ml/min and detection at 270 nm. Lag time and flux were obtained from permeation profiles and skin drug content also was recorded.
# The following formula was tested for skin penetration: • Water 28.1% (by wt); • Carbopol 981 (2%) 17.0%; • Ethanol SDA 40b-190 53.0%; • Glycerin 1.0%; • Triethanolamine 0.4%; • p-Hydroxycinnamic acid 0.5%.
# The method used to determine skin permeability was the Franz diffusion method disclosed above. […] In particular, 3.9 mcg/ml of p-HCA was found in the receptor compartment of the skin (i.e., permeated through the skin) as opposed to 16.3 mcg/ml p-HCA found within the skin.
# [5] = hydroethanolic Carbopol gel formula with 0.5% p-hydroxycinnamic acid
# [6] = in presence of ethoxydiglycol vs powder form
skin redness ([1]; weeks 4 and 8),p-HCA metabolized [2] [%],solubility ([3]; 30% hydroethanolic solution) [wt %],solubility ([3]; Ethanol) [wt %],solubility ([3]; PEG-8) [wt %],solubility ([3]; butylene glycol) [wt %],solubility ([3]; glycereth-26) [wt %],solubility ([3]; pentylene glycol) [wt %],solubility ([3]; silicone fluid DC 193) [wt %],"amount deposited in the skin relative to amount transmitted through the skin [4, 5]","p-HCA found in the receptor compartment (permeated through the skin) [4, 5] [µg/mL]","elevation of percent p-HCA that permeates cadaver skin [4, 6] [%]","elevation of percentage of p-HCA that remained within the skin [4, 6]",Structure (SMILES),skin redness ([1]; throughout the eight-week clinical trial)
induced redness,,,,,,,,,,,,,O=c1cc(CO)occ1O [kojic acid],did not reduce redness
,3.6,0.75,14.8,5.4,2.25,7,1.75,4.7,four times greater,3.9,43,about 50%,"O=C(O)C=Cc1ccc(O)cc1 [p-HCA, p-hydroxycinnamic acid]",

# Source: patent publication US20080214669A1, “Composition and Method For Treating Hyperpigmented Skin” (LIPO CHEMICALS INC., priority 2005, published 2008)
